Each structure is given as a SMILES string.

We go through one compound from patent US8188096B2, “Protein kinase targeted therapeutics” (Northwestern University, priority 2006, dated 2012).

The target in one data set is CK1δ (Homo sapiens, UniProt P48730). The data set is described as follows: in vitro phosphorylation of a standard protein or peptide substrate by purified kinase. Type of data set: biochemical. The settings on record: 100 mM ATP, increasing concentrations of compound, percent of maximal enzyme activity (FIG. 2).
Chain of CK1δ (P48730 whole entry): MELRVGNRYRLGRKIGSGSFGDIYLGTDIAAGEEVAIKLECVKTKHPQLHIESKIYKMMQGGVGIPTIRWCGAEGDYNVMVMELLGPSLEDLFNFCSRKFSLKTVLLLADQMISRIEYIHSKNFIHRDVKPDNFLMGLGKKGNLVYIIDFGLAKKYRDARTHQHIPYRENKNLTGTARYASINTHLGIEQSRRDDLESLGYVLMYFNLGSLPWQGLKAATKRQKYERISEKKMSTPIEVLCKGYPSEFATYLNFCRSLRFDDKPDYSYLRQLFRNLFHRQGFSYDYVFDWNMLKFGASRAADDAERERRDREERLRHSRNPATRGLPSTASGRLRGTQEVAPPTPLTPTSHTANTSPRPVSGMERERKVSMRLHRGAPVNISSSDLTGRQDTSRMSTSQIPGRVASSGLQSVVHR
Data set [1] in a line: plasma levels after oral administration (oral bioavailability). Type of data set: in vivo. The settings on record: plasma levels after oral administration (FIG. 4A).
For data set [2], the system named is LPS-induced serum cytokine levels. Briefly: LPS-induced serum cytokine levels in acute inflammation mouse model (ELISA). Type of data set: in vivo. The settings on record: 25 mg/kg oral gavage, LPS 10 mg/kg i.p. 30 minutes later, serum after 6 hr, ELISA (FIG. 3). In general terms: ELISA stands for enzyme-linked immunosorbent assay.
A short description of data set [3]: liver histological toxicity screen after chronic administration. Type of data set: in vivo. The settings on record: after chronic administration (FIG. 4B).
A short description of data set [4]: metabolic stability in human liver microsome screen. Type of data set: in vitro ADME. The settings on record: human liver microsome screen (FIG. 4C). For orientation: Liver microsomes are vesicles of endoplasmic reticulum, rich in cytochrome P450 enzymes.

As for `c1ccc(-c2nnc(N3CCN(c4ncccn4)CC3)cc2-c2ccncc2)cc1` [MW01-2-069aSRM], the “inhibition of CK1δ enzyme activity” value against CK1δ was “inhibit in vitro p38 MAPK and CK1δ enzyme activity in a concentration dependent manner”. Besides, the oral bioavailability entry in data set [1] is “oral bioavailability, safety and metabolic stability is demonstrated”. Besides, in data set [2], the “inhibition of LPS-induced serum cytokine levels” value was “inhibit LPS-induced serum cytokine levels in vivo”. Further, the liver histological toxicity entry in data set [3] is on record as “no liver histological toxicity”. Also, the metabolic stability result in data set [4] is listed as “metabolic stability is demonstrated”.
